Measured values from US20170020909A1, “METHODS OF TREATING GLAUCOMA USING AMP-ACTIVATED PROTEIN KINASE (AMPK) ACTIVATORS” (Massachusetts Eye and Ear Infirmary, priority 2014, published 2017).
“Also recorded” adds a separate entry of the source.

How the values were obtained:
Format in all cases: cell-based
[1] = system: SPARC; assay: Immunoblot of SPARC in conditioned media of human TM cells; conditions: 24 hours
Protocol: (§1) FIGS. 5A-E. AICAR suppresses ECM proteins in primary human TM cells under basal and TGF-β2 stimulatory conditions. (A) Representative immunoblots of ECM proteins from conditioned media (CM) of human TM cells treated for 24 hours with PBS vehicle or 0.5 mM AICAR and (B) integrated band intensities calculated from those immunoblots. (C) Representative immunoblots of ECM proteins from CM of human TM cells under stimulation with 2.5 ng/mL TGF-β2. Cells were pre-incubated for 1 hour with PBS or 0.5 mM AICAR prior to full 24-hour treatment. (D) Mean integrated band intensities. Data in panels B and D are expressed as mean±SEM (*p<0.05 vs. PBS vehicle by student t-test; n=5-7). (E) Representative 10% acrylamide gels stained with Coomassie Brilliant Blue as a loading control. […]
(§2) At the conclusion of each experiment for matricellular and ECM protein detection, conditioned media (CM) from TM cell cultures was harvested and centrifuged at 5000 rpm for 10 minutes at 4° C. The supernatant was then concentrated (Amicon Ultra-4 Filter Unit, 10 kDa; Millipore, Milford, Mass.), and protein content quantified using the DC Protein Assay kit adhering to manufacturer's protocols (Bio-Rad, Hercules, Calif.). […] Samples were then centrifuged at 14,000 rpm for 15 minutes at 4° C. and protein content quantified. […]

[2] = system: collagen I; assay: Immunoblot of collagen I in conditioned media of human TM cells; conditions: 24 hours
Protocol: as §1, §2

[3] = system: collagen IV; assay: Immunoblot of collagen IV in conditioned media of human TM cells; conditions: 24 hours
Protocol: as §1, §2

[4] = system: primary cultured human TM cells; assay: Phalloidin (F-actin) immunofluorescent staining and morphology of primary cultured human TM cells
Protocol: FIG. 6. […] Human TM cells were plated on 8-well slides, treated as in FIG. 3, and then stained with phalloidin (F-actin) antibody. Nuclei were stained with DAPI. Representative immunofluorescent images shown above (n=3). Scale bar, 50 μm. Primary human trabecular meshwork (TM) cells were isolated, in accordance with the Declaration of Helsinki, and maintained in culture as described previously.^63 Independent primary human TM cell lines were generated from donors ranging in age from 35 to 72 years and no known history of ocular disease. Cell cultures were maintained, unless otherwise stated, in Dulbecco's modified eagle medium (Life Technologies, Grand Island, N.Y.) containing 20% fetal bovine serum, 1% L-glutamine (2 mM), and gentamicin (0.1 mg/ml) at 37° C. in a 10% CO2 atmosphere. Only TM cells from third through fifth passage were used. All experiments were performed using at least three different primary human TM cell lines. TM cells in 8 well-slides were fixed for 30 minutes with 4% paraformaldehyde in PBS (pH 7.4) at 4° C., then washed in PBS for 10 minutes twice at RT. Cells were permeabilized with 0.2% Triton-100 in PBS for 5 min and then washed in PBS and blocked in 3% bovine serum albumin (BSA) in PBS for 1 hr at RT. […] Nuclei were stained with TO-DAPI (Invitrogen), and labeled tissues were analyzed by fluorescent light microscopy using a Zeiss Observer3.1.

[5] = 0.5 mM AICAR vs PBS vehicle, basal
[6] = 0.5 mM AICAR, under TGF-β2 stimulation with 2.5 ng/mL

## NC(=O)c1ncn([C@@H]2O[C@H](CO)[C@@H](O)[C@H]2O)c1N [AICAR, 5-Aminoimidazole-4-carboxamide riboside]
[1]; [5]
  change in SPARC (mean integrated band intensity): no change
[1]; [6]
  decrease in SPARC level: 64%
[2]; [5]
  decrease in collagen I (mean integrated band intensity): 70%
[2]; [6]
  decrease in collagen I level: 26%
[3]; [5]
  decrease in collagen IV (mean integrated band intensity): 52%
[3]; [6]
  decrease in collagen IV level: 34%
[4]; 0.5 mM AICAR, cultured TM cells (data not shown)
  cell morphology: narrower cell bodies
[4]; AICAR, basal and TGF-β2 stimulatory conditions
  F-actin staining and actin stress fiber formation: decreased F-actin staining and actin stress fiber formation; also recorded: decreased F-actin cytoskeletal staining, and fewer actin stress fibers
